Source: patent US6465476B1, “Immuno-modulator exhibiting antimicrobial and anti-mycrobacterial activities, method for producing the same and pharmaceutical preparation” (priority 1997, dated 2002)
Where two headings read alike, the source gives them in different places.

Tests used:
[1] = in vivo; cited from earlier work
Tubazide-resistent H37Rv = assay type: in vivo, tuberculosis mycobacteria; mice of the CBA line; conditions: Tubazide-resistent H37Rv
[2] = system: tuberculosis mycobacteria H37Rv (USSR H37Rv); assay type: in vivo, tuberculosis mycobacteria; mice of the CBA line; conditions: USSR H37Rv
[3] = system: antibody-forming cells (AFC) in the spleens; assay: Antibody-forming cells in the spleen, immunodeficiency caused by irradiation (Jeme-Nordin's procedure); assay type: in vivo, mice F1 (CBA×C57BL/6); conditions: irradiated mice 4 Gy
Protocol: Determination of immunotropic activity of isophonum was carried out. Immunotropic activity of isophonum was determined on a model of immunodeficiency caused by irradiation. To create an immunodeficient state the mice F1 (CBA×C57BL/6) were irradiated with gamma-rays on a radioterapeutic apparatus in a dose of 4 Gy (Gy is the irradiation unit gray) at an irradiation dose power of 0.55 Gr/min. The number of antibody-forming cells (AFC) in the spleens was calculated by Jeme-Nordin's procedure. Isophonum and diuciphonum were introduced per os over a wide range of doses. The investigation results are represented in Table 1.

[4] = system: Kyp-4 strain of leprosy mycobacteria; assay: Antileprous activity in mice infected by Shepard's procedure; assay type: in vivo, leprosy mycobacteria; male mice of the CBA line; conditions: after six months; isophonum dose 2.5 mg/kg
Excerpt: Antileprous activity of isophonum as compared with that of diuciphonum was studied on male mice of the CBA line infected with the laboratory Kyp-4 strain of leprosy mycobacteria taken in an amount of 5000 and introduced intraplantedly by Shepard's procedure. The experiment lasted six months from the 7th of February to the […] 1996. Observed were 5 groups of mice with 15 mice in each group. All the animals were kept under the same conditions of the vivarium on a standard diat.
The first group (controls): during six months of the experiment the mice received 0.5 ml of a starch suspension through a probe five times a week. After six months the animals were killed through a cervical dislocation of backbone, the organs were subjected to a bacterioscopic investigation, no pathologic deviations characteristic of any of the groups were found. The bacteriscopic investigation of the infected site was carried out by grinding the mouse foot in 2 ml of 0.1 percent solution of albumin, making a smear from 0.01 ml of the suspenstion and painting it by Ziel-Nielson's procedure and counting the number of leprosy micobacteria in 60 fields of vision to determine the number of micobacteria per mouse in each group.

[5] = system: antibody-forming cells (AFC) in the spleen; assay: Humoral immunity, localized-in-gel hemolysis, AFC accumulation in spleen of immunized mice; assay type: in vivo, hybrid mice F1 (CBA/C57BL6)
Protocol: The influence on humoral immunity was studied using the method of localized-in-gel hemolysis. […] On the 5th day the number of antibody-forming cells (AFC) in the spleen of the mice was calculated and the immune response stimulation index was determined as the ratio of AFC number in the test group to the AFC number in the control group. The respective data are represented in Table 2.

[6] = system: agent of leprosy (mycobacteria of leprosy); conditions: leprosy patients
macrophages = assay: Phagocytic activity of macrophages (clearance from blood); assay type: in vivo, mice; conditions: 500 μg per mouse per os
Excerpt: The influence of the preparations in question on the phagocytic activity of macrophages was studid from clearence of the carcass in blood taken from the retroorbital sinus of mice that received the preparations per os. The results were estimated on the phagocytic index α (see Table 4).

[7] = system: human mononucleator cells (T-lymphocytes); assay: Proliferation of T-lymphocytes in cell culture in vitro (3H-thymidine); assay type: cell-based
Protocol: The influence of the test compound on the proliferation of T-lymphocytes was studied on a model in vitro. To this end human mononucleator cells were preliminarily incubated during three hours in the presence of different concentrations of each test substance. Each test substance was studied over a wide range of its concentrations, that is from […]. As a negative control there was added a physiological 0.9 percent solution of NaCl. The results of the influence of novel compoubds on the intensity of proliferation of human lymphocytes in the cell culture in vitro are represented in Table 3.

[8] = due to impurities contained therein; cited from earlier work
[9] = after three months, 0.6 g daily

Question: With `NNC(=O)c1ccncc1` [Tubazide] as the molecule, how does the toxicity [1] read?
Answer: The toxicity was 150 mg/kg.

Question: What about the Damage index (Tubazide-resistent H37Rv; 100 μg per mouse) of the same molecule?
Answer: Its Damage index is 2.44 ± 0.24.

Question: What about the Life duration (Tubazide-resistent H37Rv; 100 μg per mouse) of the same molecule?
Answer: Its Life duration is 23.7 ± 2.4.

Question: And the “Weight of the lung” value (Tubazide-resistent H37Rv; 100 μg per mouse)?
Answer: The value was 628.7 ± 48.4.

Question: And the Damage index (Tubazide-resistent H37Rv; 200 μg per mouse)?
Answer: Its Damage index is 2.01 ± 0.18.

Question: What about the Life duration (Tubazide-resistent H37Rv; 200 μg per mouse) of the same molecule?
Answer: Its Life duration is 30.2 ± 2.8.

Question: What about the “Weight of the lung” value (Tubazide-resistent H37Rv; 200 μg per mouse) of the same molecule?
Answer: Its value is 580.4 ± 46.4.

Question: And the Damage index ([2]; 100 μg per mouse)?
Answer: The Damage index was 2.16 ± 0.17.

Question: And the “Weight of the lung” value ([2]; 100 μg per mouse)?
Answer: The value was 586.4 ± 47.2.

Question: What about the Damage index ([2]; 200 μg per mouse) of the same molecule?
Answer: Its Damage index is 2.11 ± 0.18.

Question: What about the Life duration ([2]; 200 μg per mouse) of the same molecule?
Answer: The Life duration was 32.2 ± 4.4.

Question: What about the “Weight of the lung” value ([2]; 200 μg per mouse) of the same molecule?
Answer: Its value is 550.6 ± 46.4.

Question: What does the source list for `Cc1[nH]c(=O)[nH]c(=O)c1S(=O)(=O)Nc1ccc(S(=O)(=O)c2ccc(NS(=O)(=O)c3c(C)[nH]c(=O)[nH]c3=O)cc2)cc1` [Diuciphonum, reference compound]?
Answer: AFC-number in the spleen ([3]; 10 μg per mouse per os): 768 ± 123; Immune response stimulation index ([3]; 10 μg per mouse per os): 2.5 ± 0.2; AFC-number in the spleen ([3]; 100 μg per mouse per os): 870 ± 119; Immune response stimulation index ([3]; 100 μg per mouse per os): 2.9 ± 0.12; AFC-number in the spleen ([3]; 1000 μg per mouse per os): 647 ± 64; Immune response stimulation index ([3]; 1000 μg per mouse per os): 2.1 ± 0.2; Number of mycobacteria in the foot × 10^6 [4]: 0.048 ± 0.007 × 10^6; Percentage of infected animals [4]: 60%; AFC-number in the spleen ([5]; 500 μg per mouse per os in starch suspension, 5th day after immunization): 2250 ± 125; Immune response stimulation index ([5]; 500 μg per mouse per os, ratio of AFC test group to control group): 4.5; toxicity [1]: 2600 mg/kg; B-lymphocytes ([6]; after one month, 0.6 g daily): 8.4 ± 0.6; T-helpers ([6]; after one month, 0.6 g daily): 32.4 ± 2.0; T-lymphocytes ([6]; after one month, 0.6 g daily): 50.5 ± 2.1; T-suppressors ([6]; after one month, 0.6 g daily): 20.1 ± 0.6; Th/Ts (immunoregulatory index) ([6]; after one month, 0.6 g daily): 1.6 ± 0.1; B-lymphocytes [6, 9]: 9.0 ± 0.3; T-helpers [6, 9]: 36.9 ± 2.3; T-lymphocytes [6, 9]: 55.4 ± 2.4; T-suppressors [6, 9]: 20.0 ± 0.5; Th/Ts (immunoregulatory index) [6, 9]: 1.8 ± 0.4; B-lymphocytes ([6]; before treatment): 6.3 ± 0.3; T-helpers ([6]; before treatment): 16.8 ± 0.2; T-lymphocytes ([6]; before treatment): 30.4 ± 0.4; T-suppressors ([6]; before treatment): 17.0 ± 0.4; Th/Ts (immunoregulatory index) ([6]; before treatment): 1.0; Phagocytic index (macrophages): 5.18 ± 0.04; Phagocytic index, percent of controls (macrophages; controls 100%): (123%); Damage index (Tubazide-resistent H37Rv; dose not given): 2.27 ± 0.19; Life duration (Tubazide-resistent H37Rv; dose not given): 24.9 ± 2.4; Weight of the lung (Tubazide-resistent H37Rv; dose not given): 602.7 ± 70.2; Damage index ([2]; dose not given): 2.31 ± 0.24; Life duration ([2]; dose not given): 25.1 ± 2.8; Weight of the lung ([2]; dose not given): 580.4 ± 50.7; Intensity of involvement of 3H-thymidine in DNA of cultivated cells, PHA-activated ([7]; 0.01 μg/ml): 22811 impulse per minute; Intensity of involvement of 3H-thymidine in DNA of cultivated cells, Spontaneous ([7]; 0.01 μg/ml): 860 impulse per minute; Intensity of involvement of 3H-thymidine in DNA of cultivated cells, PHA-activated ([7]; 0.03 μg/ml): 24214 impulse per minute; Intensity of involvement of 3H-thymidine in DNA of cultivated cells, Spontaneous ([7]; 0.03 μg/ml): 850 impulse per minute; Intensity of involvement of 3H-thymidine in DNA of cultivated cells, PHA-activated ([7]; 0.1 μg/ml): 28946 impulse per minute; Intensity of involvement of 3H-thymidine in DNA of cultivated cells, Spontaneous ([7]; 0.1 μg/ml): 804 impulse per minute; Intensity of involvement of 3H-thymidine in DNA of cultivated cells, PHA-activated ([7]; 1 μg/ml): 26400 impulse per minute; Intensity of involvement of 3H-thymidine in DNA of cultivated cells, Spontaneous ([7]; 1 μg/ml): 799 impulse per minute; Intensity of involvement of 3H-thymidine in DNA of cultivated cells, PHA-activated ([7]; 5 μg/ml): 20150 impulse per minute; Intensity of involvement of 3H-thymidine in DNA of cultivated cells, Spontaneous ([7]; 5 μg/ml): 800 impulse per minute

Question: For `Cc1[nH]c(=O)[nH]c(=O)c1S(=O)(=O)NNC(=O)c1ccncc1` [N-(6-methyl-2,4-dioxo-1,2,3,4-tetrahydro-5-pyrimidinsulfon)-N′-isonicotinoylhydrazide], which “behaviour on prolonged storage” value [8] is on record?
Answer: Its value is “does not withstand prolonged storage conditions”.
